Experimental findings from PubChem BioAssay AID1259407 (Chemical Carcinogenesis Research Information System (CCRIS), 2018) are described below.

SMILES strings stand for the structures. Activity calls are given as the source filed them. The rule behind the calls is not given here.

The subject of the data set is CCRIS mutagenicity, Ames/micronucleus/aberration tests. In words: CCRIS mutagenicity studies.
Where [1] appears, read: Test System: AMES SALMONELLA TYPHIMURIUM, Strain/Indicator: TA98, Metabolic Activation: NONE, Method: STANDARD PLATE.
[2] abbreviates: Test System: AMES SALMONELLA TYPHIMURIUM, Strain/Indicator: TA98, Metabolic Activation: RAT, LIVER, S-9, AROCLOR 1254, Method: STANDARD PLATE.
[3] abbreviates: Test System: AMES SALMONELLA TYPHIMURIUM, Strain/Indicator: TA100, Metabolic Activation: NONE, Method: STANDARD PLATE.
Setting [4] is: Test System: AMES SALMONELLA TYPHIMURIUM, Strain/Indicator: TA100, Metabolic Activation: RAT, LIVER, S-9, AROCLOR 1254, Method: STANDARD PLATE.
The mark [5] stands for this setting: Test System: AMES SALMONELLA TYPHIMURIUM, Strain/Indicator: TA100, Metabolic Activation: NONE, Method: PREINCUBATION

On to `NC(=O)CC[C@H](N)C(=O)O`, for which the mutagenic call (End Point: In vitro chromosomal aberrations, Test System: Chinese hamster ovary (CHO) cells, Metabolic Activation: None) was “inactive; negative; glutamine, alone or in combination with vitamin c, reduced effect of d”; the mutagenic call (End Point: In vivo chromosomal aberrations, Test System: Bone marrow cells, Species: Rat, Strain/Sex: Wistar/Male and female, Route: Oral) was “inactive; negative; glutamine, alone or with vitamin c, reduced effect of doxorubicin”; the mutagenic call (End Point: In vivo micronucleus, Test System: Peripheral blood cells, Species: Mouse, Strain/Sex: Swiss/Male, Route: Oral) is “inactive; negative”.

With `NNC(=O)CNc1ccc2ccccc2c1`, the mutagenic call reads like this: under setting [1], “inactive; negative”; under setting [2], “inactive; negative”; under setting [3], “inactive; negative”; under setting [4], “inactive; negative”; (Test System: AMES SALMONELLA TYPHIMURIUM, Strain/Indicator: TA1537, Metabolic Activation: NONE, Method: STANDARD PLATE) “inactive; negative”; (Test System: AMES SALMONELLA TYPHIMURIUM, Strain/Indicator: TA1537, Metabolic Activation: RAT, LIVER, S-9, AROCLOR 1254, Method: STANDARD PLATE) “inactive; negative”.

Regarding `CN(C)c1ccc(/C=C/C(=O)c2ccccc2)cc1`, the mutagenic call was “inactive; negative” under setting [1], “inactive; negative” under setting [2], “inactive; negative” under setting [3] and “inactive; negative” under setting [4].

Consider `CN(C(=O)c1csc([N+](=O)[O-])c1)c1ccccc1`, for which the mutagenic call by setting is: under setting [1], “active; positive”; under setting [3], “active; positive”.

Regarding `N#Cc1cccc(/C=C/c2ccc(N)cc2)c1`, the mutagenic call is “inactive; negative” (Test System: AMES SALMONELLA TYPHIMURIUM, Strain/Indicator: TA98(1,8-DNP6), Metabolic Activation: NONE, Method: STANDARD PLATE); “active; positive” (Test System: AMES SALMONELLA TYPHIMURIUM, Strain/Indicator: TA98(1,8-DNP6), Metabolic Activation: S-9, Method: STANDARD PLATE); “active; positive” under setting [1]; “active; positive” (Test System: AMES SALMONELLA TYPHIMURIUM, Strain/Indicator: TA98, Metabolic Activation: S-9, Method: STANDARD PLATE); “inactive; negative” under setting [3]; “active; positive” (Test System: AMES SALMONELLA TYPHIMURIUM, Strain/Indicator: TA100, Metabolic Activation: S-9, Method: STANDARD PLATE).

For the compound `CCCc1cc(=O)oc2c3c(c4c(c12)OC(C)(C)C=C4)O[C@H](C)[C@@H](C)[C@H]3O`, the mutagenic call was “inactive; negative” (Test System: Mouse lymphoma, Strain/Indicator: L5178Y (tk+/tk-), Metabolic Activation: None, Method: Suspension/plate) and “inactive; negative” (Test System: Mouse lymphoma, Strain/Indicator: L5178Y (tk+/tk-), Metabolic Activation: Rat, Liver, S-9, Aroclor 1254, Method: Suspension/plate).

Turning to `CCCCC(CC)COC(=O)C(C#N)=C(c1ccccc1)c1ccccc1` (stereo not drawn), the mutagenic call reads like this: (Test System: AMES SALMONELLA TYPHIMURIUM, Strain/Indicator: TA98, Metabolic Activation: HAMSTER, LIVER, S-9, AROCLOR 1254 (10%), Method: PREINCUBATION) “inactive; negative”; (Test System: AMES SALMONELLA TYPHIMURIUM, Strain/Indicator: TA98, Metabolic Activation: NONE, Method: PREINCUBATION) “inactive; negative”; (Test System: AMES SALMONELLA TYPHIMURIUM, Strain/Indicator: TA98, Metabolic Activation: RAT, LIVER, S-9, AROCLOR 1254 (10%), Method: PREINCUBATION) “inactive; negative”; (Test System: AMES SALMONELLA TYPHIMURIUM, Strain/Indicator: TA100, Metabolic Activation: HAMSTER, LIVER, S-9, AROCLOR 1254 (10%), Method: PREINCUBATION) “inactive; negative”; under setting [5], “inactive; negative”; (Test System: AMES SALMONELLA TYPHIMURIUM, Strain/Indicator: TA100, Metabolic Activation: RAT, LIVER, S-9, AROCLOR 1254 (10%), Method: PREINCUBATION) “inactive; negative”. In addition, the mutagenic call is “inactive; negative” (Test System: AMES SALMONELLA TYPHIMURIUM, Strain/Indicator: TA1535, Metabolic Activation: HAMSTER, LIVER, S-9, AROCLOR 1254 (10%), Method: PREINCUBATION); “inactive; negative” (Test System: AMES SALMONELLA TYPHIMURIUM, Strain/Indicator: TA1535, Metabolic Activation: NONE, Method: PREINCUBATION); “inactive; negative” (Test System: AMES SALMONELLA TYPHIMURIUM, Strain/Indicator: TA1535, Metabolic Activation: RAT, LIVER, S-9, AROCLOR 1254 (10%), Method: PREINCUBATION); “inactive; negative” (Test System: AMES SALMONELLA TYPHIMURIUM, Strain/Indicator: TA1537, Metabolic Activation: HAMSTER, LIVER, S-9, AROCLOR 1254 (10%), Method: PREINCUBATION); “inactive; negative” (Test System: AMES SALMONELLA TYPHIMURIUM, Strain/Indicator: TA1537, Metabolic Activation: NONE, Method: PREINCUBATION); “inactive; negative” (Test System: AMES SALMONELLA TYPHIMURIUM, Strain/Indicator: TA1537, Metabolic Activation: RAT, LIVER, S-9, AROCLOR 1254 (10%), Method: PREINCUBATION). Also, the mutagenic call (Test System: MOUSE LYMPHOMA, Strain/Indicator: L5178Y (TK+/TK-), Metabolic Activation: NONE, Method: SUSPENSION/PLATE) is “inactive; negative” and the mutagenic call (Test System: MOUSE LYMPHOMA, Strain/Indicator: L5178Y (TK+/TK-), Metabolic Activation: RAT, LIVER, S-9, AROCLOR 1254, Method: SUSPENSION/PLATE) is “inactive; negative”.

`N#CC(Cl)Cl`: the mutagenic call under setting [1] was “active; positive”; the mutagenic call under setting [2] is “active; positive”; the mutagenic call (Test System: AMES SALMONELLA TYPHIMURIUM, Strain/Indicator: TA98, Metabolic Activation: RAT, LIVER, S-9, PHENOBARBITAL AND 5,6-BENZOFLAVONE, Method: PREINCUBATION) was “inactive; negative”; the mutagenic call (Test System: AMES SALMONELLA TYPHIMURIUM, Strain/Indicator: TA100, Metabolic Activation: NONE, Method: FLUCTUATION TEST) was “active; positive”; the mutagenic call under setting [5] was “active; positive”; the mutagenic call under setting [3] was “active; positive”. Also, the mutagenic call (Test System: AMES SALMONELLA TYPHIMURIUM, Strain/Indicator: TA100, Metabolic Activation: RAT, LIVER, S-9, AROCLOR 1254, Method: FLUCTUATION TEST) was “active; positive”; the mutagenic call under setting [4] was “active; positive”; the mutagenic call (Test System: AMES SALMONELLA TYPHIMURIUM, Strain/Indicator: TA100, Metabolic Activation: RAT, LIVER, S-9, PHENOBARBITAL AND 5,6-BENZOFLAVONE, Method: PREINCUBATION) is “active; positive”; the mutagenic call (Test System: AMES SALMONELLA TYPHIMURIUM, Strain/Indicator: TA1535, Metabolic Activation: NONE, Method: STANDARD PLATE) is “active; positive”; the mutagenic call (Test System: AMES SALMONELLA TYPHIMURIUM, Strain/Indicator: TA1535, Metabolic Activation: RAT, LIVER, S-9, AROCLOR 1254, Method: STANDARD PLATE) was “active; positive”.
